Results: US10426818B2, “Method and pharmaceutical composition for use in the treatment of diabetes” (INSERM (INSITUT NATIONAL DE LA SANTE ET DE LA RECHERCHE …, priority 2015, dated 2019)
Where two headings read alike, the source gives them in different places.

System: overweighed healthy volunteers
Details: for ΔGIR (difference in Glucose Infusion Rate): single 2 hours continuous intravenous infusion, 8 volunteers
Method: This trial is a Phase 1, exploratory, monocentric, placebo-controlled, double blinded, crossover study.
Two groups of 8 male, overweighed (BMI 25-30 kg/m^2) healthy volunteers were included in this study.
The first 8 volunteers were included in the low dose group.
The next 8 volunteers were included in the high dose group.
Euglycemic Hyperinsulinemic Clamp Technique • Insulin (Actrapid®, NovoNordisk, Copenhagen, Denmark) was perfused for 4 hours at a constant supra-physiological rate (1 mU·Kg-1·min-1) resulting in the complete inhibition of hepatic glucose production. • Blood glucose level was measured every 5 min and maintained for 4 hours at a constant physiological value (5 mmol/l) adapting the rate of infusion of a 20% glucose solution.
The primary endpoint (deltaGIR) was the difference between the GIR measured during the steady state ending the “investigational product” perfusion phase (GIRperfusion) and the GIR measured during the steady state ending the “basal” phase (GIRbasal). Delta GIR=GIRperfusion−GIRbasal

Substance: (pyr1)-Apelin-13
- change in ΔGIR versus placebo (in words) (9 nmol/kg intravenous, p=0.06): non-significant increase
- ΔGIR (difference in Glucose Infusion Rate) (9 nmol/kg, p=0.06 versus placebo): +2.21±0.54 mg/kg/min
- insulin sensitivity versus placebo (in words) (30 nmol/kg intravenous, p=0.03): significant improvement
- ΔGIR (difference in Glucose Infusion Rate) (30 nmol/kg, p=0.03 versus placebo): +1.72±0.47 mg/kg/min
